Experimental findings from patent US8492375B2, “1-benzoyl substituted diazepine derivatives as selective histamine H3 receptor agonists” (Glaxo Group Limited, priority 2003, dated 2013) are described below.

The target in experiment [1] is histamine H3 receptor (Homo sapiens, UniProt Q9Y5N1). Nature of the experiment: Histamine H3 functional antagonist assay ([35S]GTPγS binding, SPA, membranes of CHO K1 cells). Particulars: pKb, antagonism of 0.3 μM histamine, membranes with human H3 receptor. In general terms: GTPγS resists hydrolysis and so accumulates on activated G proteins.
histamine H3 receptor, sequence (Q9Y5N1 whole entry): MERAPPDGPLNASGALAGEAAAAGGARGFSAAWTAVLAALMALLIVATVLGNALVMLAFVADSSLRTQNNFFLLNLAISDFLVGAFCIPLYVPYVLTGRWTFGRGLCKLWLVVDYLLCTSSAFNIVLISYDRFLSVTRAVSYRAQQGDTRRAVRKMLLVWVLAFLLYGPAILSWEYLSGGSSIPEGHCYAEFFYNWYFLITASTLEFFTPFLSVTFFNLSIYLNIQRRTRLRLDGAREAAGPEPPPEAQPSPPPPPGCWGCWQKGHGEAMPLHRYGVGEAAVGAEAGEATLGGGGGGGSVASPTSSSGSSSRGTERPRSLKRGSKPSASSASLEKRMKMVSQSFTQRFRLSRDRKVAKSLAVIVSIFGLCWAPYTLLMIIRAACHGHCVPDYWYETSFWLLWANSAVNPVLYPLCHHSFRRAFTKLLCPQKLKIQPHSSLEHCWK
Description: Ligated DNA was transformed into competent DH5α E. coli host bacterial cells and plated onto Luria Broth (LB) agar containing Zeocin™ (an antibiotic which allows the selection of cells expressing the sh ble gene which is present on pGene and pSwitch) at 50 μg ml^−1. Colonies containing the re-ligated plasmid were identified by restriction analysis. DNA for transfection into mammalian cells was prepared from 250 ml cultures of the host bacterium containing the pGeneH3 plasmid and isolated using a DNA preparation kit (Qiagen Midi-Prep) as per manufacturers guidelines (Qiagen).
CHO K1 cells previously transfected with the pSwitch regulatory plasmid (InVitrogen) were seeded at 2×10e6 cells per T75 flask in Complete Medium, containing Hams F12 (GIBCOBRL, Life Technologies) medium supplemented with 10% v/v dialysed foetal bovine serum, L-glutamine, and hygromycin (100 μg ml^−1), 24 hours prior to use. Plasmid DNA was transfected into the cells using Lipofectamine plus according to the manufacturers guidelines (InVitrogen). 48 hours post transfection cells were placed into complete medium supplemented with 500 μg ml^−1 Zeocin™
10-14 days post selection 10 nM Mifepristone (InVitrogen), was added to the culture medium to induce the expression of the receptor. […] Approximately 1×10e7 cells were examined for receptor expression by staining with a rabbit polyclonal antibody, 4a, raised against the N-terminal domain of the histamine H3 receptor, incubated on ice for 60 minutes, followed by two washes in sorting medium. […] Following two further washes with Sorting Medium, cells were filtered through a 50 μm Filcon™ (BD Biosciences) and then analysed on a FACS Vantage SE Flow Cytometer fitted with an Automatic Cell Deposition Unit. […] Positively stained cells were sorted as single cells into 96-well plates, containing Complete Medium containing 500 μg ml^−1 Zeocin™ and allowed to expand before reanalysis for receptor expression via antibody and ligand binding studies.
(ii) Membrane Preparation from Cultured Cells
All steps of the protocol are carried out at 4° C. and with pre-cooled reagents. The cell pellet is resuspended in 10 volumes of buffer A2 containing 50 mM N-2-hydroxyethylpiperazine-N′-2-ethanesulfonic acid (HEPES) (pH 7.40) supplemented with 10e-4M leupeptin (acetyl-leucyl-leucyl-arginal; Sigma L2884), 25 μg/ml bacitracin (Sigma B0125), 1 mM ethylenediamine tetra-acetic acid (EDTA), 1 mM phenylmethylsulfonyl fluoride (PMSF) and 2×10e-6M pepstain A (Sigma). The cells are then homogenised by 2×15 second bursts in a 1 liter glass Waring blender, followed by centrifugation at 500 g for 20 minutes. The supernatant is then spun at 48,000 g for 30 minutes. The pellet is resuspended in 4 volumes of buffer A2 by vortexing for 5 seconds, followed by homogenisation in a Dounce homogeniser (10-15 strokes). At this point the preparation is aliquoted into polypropylene tubes and stored at −70° C.
(II) Histamine H3 Functional Antagonist Assay
The plate is then incubated on a shaker at room temperature for 30 minutes followed by centrifugation for 5 minutes at 1500 rpm. The plate is read between 3 and 6 hours after completion of centrifuge run in a Wallac Microbeta counter on a 1 minute normalised tritium count protocol. Data is analysed using a 4-parameter logistic equation. Basal activity used as minimum i.e. histamine not added to well.
Experiment [2] concerns the target T1, human H1 receptor (Homo sapiens, UniProt P35367).
T1 construct: expressed in transfected cells
Nature of the experiment: Histamine H1 functional antagonist assay (FLIPR, histamine induced increase in fluorescence). It is filed as cell-based. Particulars: Chinese hamster ovary cells stably expressing the human H1 receptor; read-out: antagonism pKb, histamine H1 functional antagonist assay (converted). The procedure:
(iii) Generation of Histamine H1 Cell Line
The human H1 receptor was cloned using known procedures described in the literature [Biochem. Biophys. Res. Commun.
(III) Histamine H1 Functional Antagonist Assay
Compounds are assayed in a black walled clear bottom 384-well plate with cells seeded at 10000 cells/well. […] Each well is treated with 10 μl of a solution of FLUO4AM (10 μM in Tyrodes buffer at pH 7.40) and plates are then incubated for 60 minutes at 37° C. Wells are then washed with Tyrodes buffer using a EMBLA cell washer system, leaving 400 buffer in each well, and then treated with 100 of test compound in Tyrodes buffer. Each plate is incubated for 30 min to allow equilibration of the test compound with the receptor. Each well is then treated with 100 of histamine solution in Tyrodes buffer.
Functional antagonism is indicated by a suppression of histamine induced increase in fluorescence, as measured by the FLIPR system (Molecular Devices). By means of concentration effect curves, functional potencies are determined using standard pharmacological mathematical analysis.

Counter-ions that a name gives are not always drawn. Where only a bound is given, the exact number is not on record here.

T1 sequence (P35367 whole entry): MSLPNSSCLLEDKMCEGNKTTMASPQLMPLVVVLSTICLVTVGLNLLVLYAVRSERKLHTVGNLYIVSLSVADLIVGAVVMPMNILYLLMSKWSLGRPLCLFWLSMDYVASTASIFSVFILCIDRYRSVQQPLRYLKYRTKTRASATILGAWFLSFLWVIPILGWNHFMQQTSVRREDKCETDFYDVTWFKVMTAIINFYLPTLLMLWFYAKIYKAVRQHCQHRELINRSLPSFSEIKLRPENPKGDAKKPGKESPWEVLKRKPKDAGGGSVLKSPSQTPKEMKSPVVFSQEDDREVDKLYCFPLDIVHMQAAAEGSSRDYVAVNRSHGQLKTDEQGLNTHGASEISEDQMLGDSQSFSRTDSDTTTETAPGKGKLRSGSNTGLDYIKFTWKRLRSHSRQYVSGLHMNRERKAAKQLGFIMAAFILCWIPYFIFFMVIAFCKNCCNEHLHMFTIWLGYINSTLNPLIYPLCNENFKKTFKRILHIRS

Consider `N#Cc1ccc(-c2ccc(C(=O)N3CCCN(C4CCC4)CC3)cc2)cc1` [Example 1, 4′-[(4-Cyclobutylhexahydro-1H-1,4-diazepin-1-yl)carbonyl]-4-biphenylcarbonitrile hydrochloride], for which the Kb in experiment [1] is below 0.316 nM; in experiment [2], above 1000 nM. Taken in the same sequence, the figures for `CC(=O)c1ccc(-c2ccc(C(=O)N3CCCN(C4CCC4)CC3)cc2)cc1` [Example 2, 1-{4′-[(4-Cyclobutylhexahydro-1H-1,4-diazepin-1-yl)carbonyl]-4-biphenylyl}ethanone hydrochloride] were below 0.316 nM and above 1000 nM. On to `O=C(c1ccc(-n2cnnn2)cc1)N1CCCN(C2CCC2)CC1` [Example 7, 1-Cyclobutyl-4-{[4-tetrazol-1-yl)phenyl]carbonyl}hexahydro-1H-1,4-diazepine hydrochloride], for which the Kb was at most 1 nM in experiment [1] and above 1000 nM in experiment [2].

For the compound `O=C(c1ccc(-c2nc(-c3ccc(F)cc3)cs2)cc1)N1CCCN(C2CCC2)CC1` [Example 8, 1-Cyclobutyl-4-({4-[4-(4-fluorophenyl)-1,3-thiazol-2-yl]phenyl}carbonyl) hexahydro-1H-1,4-diazepine hydrochloride], the Kb is at most 1 nM in experiment [1] and above 1000 nM in experiment [2]. The corresponding values for `O=C(c1ccc(N2CCS(=O)(=O)CC2)cc1)N1CCCN(C2CCC2)CC1` [Example 9, 1-Cyclobutyl-4-{[4-(1,1-dioxido-4-thiomorpholinyl)phenyl]carbonyl}hexahydro-1H-1,4-diazepine hydrochloride] are at most 1 nM and above 1000 nM. Take `CC(C)N1CCCN(C(=O)c2ccc(OC3CCOCC3)cc2)CC1` [Example 10, 1-(Isopropyl)-4-{[4-(tetrahydro-2H-pyran-4-yloxy)phenyl]carbonyl}hexahydro-1H-1,4-diazepine hydrochloride]: in experiment [2], the Kb is above 1000 nM. On to `O=C(c1ccc(-c2ccc(C(F)(F)F)nc2)cc1)N1CCCN(C2CCC2)CC1` [Example 11, 1-Cyclobutyl-4-({4-[6-(trifluoromethyl)-3-pyridinyl]phenyl}carbonyl)hexahydro-1H-1,4-diazepine hydrochloride], for which the figures for the Kb in experiment [1] and in experiment [2] were below 0.316 nM and above 1000 nM, respectively.

Consider `N#Cc1ccc(-c2ccc(C(=O)N3CCCN(C4CCC4)CC3)cc2)nc1` [Example 12, 6-{4-[(4-Cyclobutylhexahydro-1H-1,4-diazepin-1-yl)carbonyl]phenyl}-3-cyanopyridine hydrochloride], for which the Kb in experiment [1] is below 0.316 nM; in experiment [2], above 1000 nM. Taken in the same sequence, the figures for `CNC(=O)c1ccc(-c2ccc(C(=O)N3CCCN(C4CCC4)CC3)cc2)cn1` [Example 13, 5-{4-[(4-Cyclobutylhexahydro-1H-1,4-diazepin-1-yl)carbonyl]phenyl}-N-methyl-2-pyridinecarboxamide hydrochloride] were at most 1 nM and above 1000 nM. The corresponding values for `N#Cc1ccc(-c2ccc(C(=O)N3CCCN(C4CCC4)CC3)cc2)cn1` [Example 14, 5-{4-[(4-Cyclobutylhexahydro-1H-1,4-diazepin-1-yl)carbonyl]phenyl}-2-cyanopyridine hydrochloride] are at most 1 nM and above 1000 nM. With `CC(C)N1CCCN(C(=O)c2ccc(-c3ccc(C#N)nc3)cc2)CC1` [Example 15, 5-(4-{[4-(1-Isopropyl)hexahydro-1H-1,4-diazepin-1-yl]carbonyl}phenyl)-2-cyanopyridine hydrochloride], in experiment [2], the Kb was above 1000 nM.

`CNC(=O)c1ccc(-c2ccc(C(=O)N3CCCN(C(C)C)CC3)cc2)cn1` [Example 16, N-Methyl-5-(4-{[4-(1-isopropyl)hexahydro-1H-1,4-diazepin-1-yl]carbonyl}phenyl)-2-pyridinecarboxamide hydrochloride]: the Kb is at most 1 nM in experiment [1] and above 1000 nM in experiment [2]. As for `O=C(c1ccc(-c2ccc(C(F)(F)F)nn2)cc1)N1CCCN(C2CCC2)CC1` [Example 22, 1-Cyclobutyl-4-({4-[6-(trifluoromethyl)-3-pyridazinyl]phenyl}carbonyl)hexahydro-1H-1,4-diazepine hydrochloride], the Kb in experiment [1] was at most 1 nM; in experiment [2], above 1000 nM. On to `O=C(c1ccc(-c2cnc(C(F)(F)F)nc2)cc1)N1CCCN(C2CCC2)CC1` [Example 23, 1-Cyclobutyl-4-({4-[2-(trifluoromethyl)-5-pyrimidinyl]phenyl}carbonyl)hexahydro-1H-1,4-diazepine hydrochloride], for which the Kb in experiment [1] is at most 1 nM; in experiment [2], above 1000 nM. Consider `O=C(c1ccc(-c2ncco2)cc1)N1CCCN(C2CCC2)CC1` [Example 56, 1-Cyclobutyl-4-{[4-(1,3-oxazol-2-yl)phenyl]carbonyl}hexahydro-1H-1,4-diazepine hydrochloride], for which, in experiment [1], the Kb is at most 1 nM. The same measure, in the same setting: with `Cc1noc(-c2ccc(C(=O)N3CCCN(C4CCC4)CC3)cc2)n1` [Example 58, 1-Cyclobutyl-4-{[4-(3-methyl-1,2,4-oxadiazol-5-yl)phenyl]carbonyl}hexahydro-4H-1,4-diazepine hydrochloride] the figure was below 0.316 nM.
